In one assay the target is ER (Homo sapiens (Human), UniProt P03372). Briefly: In-cell western blot analysis of ER for "B" compounds. It counts as cell-based. The settings on record: 16 hours, read-out: ICW DC50. The procedure, abridged: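 ER levels given as a percentage of untreated/DMSO-treated wells (100%). Detection used primary antibodies for 2 h at room temperature followed by 680 and 800 nm fluorescent secondaries at 1:1000 for 1 h, read by LI-COR imaging.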

Assay [1] is described as follows: Cell growth assay (WST-8) for "B" compounds. Format: cell-based. The settings on record: read-out: Cell growth Inhibition in T47D cell line IC50. The procedure, abridged:
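Four-day compound exposure of cells plated at 1500/well the day before. Read-out is WST-8 (10%, 2.5 h, 37 °C) absorbance at 450 nm, normalized to vehicle control over three independent repeats.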

pIC50: −log10 of the molar value. Like-named read-outs stand apart in the source and are kept apart here.

Chain of ER (P03372 whole entry): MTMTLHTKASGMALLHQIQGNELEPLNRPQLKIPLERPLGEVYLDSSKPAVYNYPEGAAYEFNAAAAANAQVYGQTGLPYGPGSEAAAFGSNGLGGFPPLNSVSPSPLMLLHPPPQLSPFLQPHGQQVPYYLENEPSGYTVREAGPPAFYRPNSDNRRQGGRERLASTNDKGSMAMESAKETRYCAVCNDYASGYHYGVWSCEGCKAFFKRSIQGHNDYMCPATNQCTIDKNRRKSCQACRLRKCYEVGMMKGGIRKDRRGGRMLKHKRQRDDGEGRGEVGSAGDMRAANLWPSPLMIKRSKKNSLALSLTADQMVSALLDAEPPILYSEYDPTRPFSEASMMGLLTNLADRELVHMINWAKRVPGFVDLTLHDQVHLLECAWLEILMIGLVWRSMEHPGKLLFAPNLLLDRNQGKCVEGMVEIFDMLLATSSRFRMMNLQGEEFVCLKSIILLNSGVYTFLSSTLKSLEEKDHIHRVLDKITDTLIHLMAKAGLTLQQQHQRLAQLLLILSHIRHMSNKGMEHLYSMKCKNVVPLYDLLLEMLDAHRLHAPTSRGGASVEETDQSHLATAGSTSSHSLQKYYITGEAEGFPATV

`O=C1CCC(N2Cc3c(ccc4c3OC[C@H]3CN(C(=O)CN5CC(Nc6ccc([C@@H]7c8ccc(O)cc8CC[C@@H]7c7ccccc7)cc6)C5)CCN43)C2=O)C(=O)N1` (stereo partly drawn) [Compound B250, 3-((R)-7-(2-(3-((4-((1R,2S)-6-hydroxy-2-phenyl-1,2,3,4-tetrahydronaphthalen-1-yl)phenyl)amino)azetidin-1-yl)acetyl)-1-oxo-1,3,5,5a,6,7,8,9-octahydro-2H-pyrazino[1′,2′:4,5][1,4]oxazino[2,3-e]isoindol-2-yl)piperidine-2,6-dione]: the DC50 at ER is 10 to 100 nM. The pIC50 in assay [1] (T47D, T47D cell line) was more than 9.00.

With `O=C1CCC(N2Cc3cc4c(cc3C2=O)OC[C@@H]2CN(CC(=O)N3CC(Nc5ccc([C@@H]6c7ccc(O)cc7CC[C@@H]6c6ccccc6)cc5)C3)CCN42)C(=O)N1` (stereo partly drawn) [Compound B207, 3-((S)-3-(2-(3-((4-((1R,2S)-6-hydroxy-2-phenyl-1,2,3,4-tetrahydronaphthalen-1-yl)phenyl)amino)azetidin-1-yl)-2-oxoethyl)-8-oxo-1,2,3,4,4a,5,8,10-octahydro-9H-pyrazino[1′,2′:4,5][1,4]oxazino[2,3-f]isoindol-9-yl)piperidine-2,6-dione], at ER, the DC50 was less than 10 nM. Moreover, in assay [1] (T47D, T47D cell line), the pIC50 is more than 9.00.

As for `O=C1CCC(N2Cc3cc4c(cc3C2=O)OC[C@@H]2CN(C(=O)CN3CC5(CC(Nc6ccc([C@@H]7c8ccc(O)cc8CC[C@@H]7c7ccccc7)cc6)C5)C3)CCN42)C(=O)N1` (stereo partly drawn) [Compound B155, 3-((S)-3-(2-(6-((4-((1R,2S)-6-hydroxy-2-phenyl-1,2,3,4-tetrahydronaphthalen-1-yl)phenyl)amino)-2-azaspiro[3.3]heptan-2-yl)acetyl)-8-oxo-1,2,3,4,4a,5,8,10-octahydro-9H-pyrazino[1′,2′:4,5][1,4]oxazino[2,3-f]isoindol-9-yl)piperidine-2,6-dione], on ER, the DC50 is less than 10 nM. For the same compound, the pIC50 in assay [1] (T47D, T47D cell line) was more than 9.00.

Consider `O=C1CCC(N2C(=O)c3cc4c(cc3C2=O)CN(CC2COC3(CCN(c5ccc([C@@H]6c7ccc(O)cc7CC[C@@H]6c6ccccc6)cc5)CC3)C2)C4)C(=O)N1` (stereo partly drawn) [Compound B235, 2-(2,6-dioxopiperidin-3-yl)-6-((8-(4-((1R,2S)-6-hydroxy-2-phenyl-1,2,3,4-tetrahydronaphthalen-1-yl)phenyl)-1-oxa-8-azaspiro[4.5]decan-3-yl)methyl)-6,7-dihydropyrrolo[3,4-f]isoindole-1,3(2H,5H)-dione], for which the DC50 at ER is more than 100 nM. Moreover, the pIC50 in assay [1] (T47D, T47D cell line) is 8.00 to 9.00.

For the compound `O=C1CCC(N2Cc3cc4c(cc3C2=O)OC[C@@H]2CN(C3CN(CC5CCN(c6ccc([C@@H]7c8ccc(O)cc8CC[C@@H]7c7ccccc7)cc6)CC5)C3)CCN42)C(=O)N1` (stereo partly drawn) [Compound B164, 3-((S)-3-(1-((1-(4-((1R,2S)-6-hydroxy-2-phenyl-1,2,3,4-tetrahydronaphthalen-1-yl)phenyl)piperidin-4-yl)methyl)azetidin-3-yl)-8-oxo-1,2,3,4,4a,5,8,10-octahydro-9H-pyrazino[1′,2′:4,5][1,4]oxazino[2,3-f]isoindol-9-yl)piperidine-2,6-dione], the DC50 on ER is less than 10 nM. The pIC50 in assay [1] (T47D, T47D cell line) was 8.00 to 9.00.

As for `CN(C(=O)c1ccc2c(c1)OC[C@H]1CN(CC3CC4(CCN(c5ccc([C@@H]6c7ccc(O)cc7CC[C@@H]6c6ccccc6)cc5)CC4)C3)CCN21)C1CCC(=O)NC1=O` (stereo partly drawn) [Compound B326, (4aR)-N-(2,6-dioxopiperidin-3-yl)-3-((7-(4-((1R,2S)-6-hydroxy-2-phenyl-1,2,3,4-tetrahydronaphthalen-1-yl)phenyl)-7-azaspiro[3.5]nonan-2-yl)methyl)-N-methyl-1,2,3,4,4a,5-hexahydrobenzo[b]pyrazino[1,2-d][1,4]oxazine-8-carboxamide], the DC50 at ER was more than 100 nM. Also, the pIC50 in assay [1] (T47D, T47D cell line) was 8.00 to 9.00.

Consider `CN(CC1CCN(c2ccc([C@@H]3c4ccc(O)cc4CC[C@@H]3c3ccccc3)cc2)CC1)[C@H]1C[C@H]2COc3cc4c(cc3N2C1)CN(C1CCC(=O)NC1=O)C4=O` (stereo partly drawn) [Compound B310, 3-((2S,3aS)-2-(((1-(4-((1R,2S)-6-hydroxy-2-phenyl-1,2,3,4-tetrahydronaphthalen-1-yl)phenyl)piperidin-4-yl)methyl)(methyl)amino)-7-oxo-2,3,3a,4,7,9-hexahydro-1H,8H-pyrrolo[1′,2′:4,5][1,4]oxazino[2,3-f]isoindol-8-yl)piperidine-2,6-dione], for which, at ER, the DC50 was more than 100 nM. In assay [1] (T47D, T47D cell line), the pIC50 is more than 9.00.

In the case of `O=C1CC[C@H](NC(=O)c2ccc(N3CCN(CC4CCN(c5ccc([C@@H]6c7ccc(O)cc7CC[C@@H]6c6ccccc6)cc5)CC4)CC3)cc2F)C(=O)N1` [Compound B317, N-((S)-2,6-dioxopiperidin-3-yl)-2-fluoro-4-(4-((1-(4-((1R,2S)-6-hydroxy-2-phenyl-1,2,3,4-tetrahydronaphthalen-1-yl)phenyl)piperidin-4-yl)methyl)piperazin-1-yl)benzamide], the DC50 at ER was more than 100 nM. Moreover, the pIC50 in assay [1] (T47D, T47D cell line) was 8.00 to 9.00.

On to `O=C1CCC(N2Cc3c(ccc4c3OC[C@H]3CN(CC5COC6(C5)CN(c5ccc([C@@H]7c8ccc(O)cc8CC[C@@H]7c7ccccc7)cc5)C6)CCN43)C2=O)C(=O)N1` (stereo partly drawn) [Compound B230, 3-((5aR)-7-((2-(4-((1R,2S)-6-hydroxy-2-phenyl-1,2,3,4-tetrahydronaphthalen-1-yl)phenyl)-5-oxa-2-azaspiro[3.4]octan-7-yl)methyl)-1-oxo-1,3,5,5a,6,7,8,9-octahydro-2H-pyrazino[1′,2′:4,5][1,4]oxazino[2,3-e]isoindol-2-yl)piperidine-2,6-dione], for which the DC50 at ER was less than 10 nM. Also, the negative-log IC50 (pIC50) in assay [1] (T47D, T47D cell line) was more than 9.00.

Regarding `CCN(CC1CCN(c2ccc([C@@H]3c4ccc(O)cc4CC[C@@H]3c3ccccc3)cc2)CC1)[C@H]1C[C@H]2COc3cc4c(cc3N2C1)CN(C1CCC(=O)NC1=O)C4=O` (stereo partly drawn) [Compound B311, 3-((2S,3aS)-2-(ethyl((1-(4-((1R,2S)-6-hydroxy-2-phenyl-1,2,3,4-tetrahydronaphthalen-1-yl)phenyl)piperidin-4-yl)methyl)amino)-7-oxo-2,3,3a,4,7,9-hexahydro-1H,8H-pyrrolo[1′,2′:4,5][1,4]oxazino[2,3-f]isoindol-8-yl)piperidine-2,6-dione], the DC50 on ER was more than 100 nM. Also, the negative logarithm of the IC50 (pIC50) in assay [1] (T47D, T47D cell line) was more than 9.00.

For `O=C1CCC(N2Cc3cc4c(cc3C2=O)OC[C@@H]2CN(CC(=O)N3CC5(CCN(c6ccc([C@@H]7c8ccc(O)cc8CC[C@@H]7c7ccccc7)cc6)CC5)C3)CCN42)C(=O)N1` (stereo partly drawn) [Compound B143, 3-((S)-3-(2-(7-(4-((1R,2S)-6-hydroxy-2-phenyl-1,2,3,4-tetrahydronaphthalen-1-yl)phenyl)-2,7-diazaspiro[3.5]nonan-2-yl)-2-oxoethyl)-8-oxo-1,2,3,4,4a,5,8,10-octahydro-9H-pyrazino[1′,2′: 4,5][1,4]oxazino[2,3-f]isoindol-9-yl)piperidine-2,6-dione], the DC50 at ER is less than 10 nM. In addition, in assay [1] (T47D, T47D cell line), the pIC50 is more than 9.00.

In the case of `O=C1CCC(N2Cc3cc4c(cc3C2=O)OC[C@@H]2CN(C(=O)CN3CC5(C3)CN(c3ccc([C@@H]6c7ccc(O)cc7CC[C@@H]6c6ccccc6)cc3)C5)CCN42)C(=O)N1` (stereo partly drawn) [Compound B205, 3-((S)-3-(2-(6-(4-((1R,2S)-6-hydroxy-2-phenyl-1,2,3,4-tctrahydronaphthalen-1-yl)phenyl)-2,6-diazaspiro[3.3]heptan-2-yl)acetyl)-8-oxo-1,2,3,4,4a,5,8,10-octahydro-9H-pyrazino[1′,2′:4,5][1,4]oxazino[2,3-f]isoindol-9-yl)piperidine-2,6-dione], the DC50 on ER is less than 10 nM. Also, in assay [1] (T47D, T47D cell line), the pIC50 is 8.00 to 9.00.

Turning to `O=C1CC[C@H](N2Cc3c(ccc4c3OCC43CCN(CC4CCC5(CCN(c6ccc([C@@H]7c8ccc(O)cc8CC[C@@H]7c7ccccc7)cc6)CC5)OC4)CC3)C2=O)C(=O)N1` (stereo partly drawn) [Compound B366, (3S)-3-(1′-((9-(4-((1R,2S)-6-hydroxy-2-phenyl-1,2,3,4-tetrahydronaphthalen-1-yl)phenyl)-1-oxa-9-azaspiro[5.5]undecan-3-yl)methyl)-6-oxo-6,8-dihydro-2H,7H-spiro[furo[2,3-e]isoindole-3,4′-piperidin]-7-yl)piperidine-2,6-dione], the DC50 on ER was less than 10 nM. For the same compound, in assay [1] (T47D), the pIC50 is more than 9.00.

With `O=C1CCC(N2Cc3cc4c(cc3C2=O)CN(CC2COC3(CCN(c5ccc([C@@H]6c7ccc(O)cc7CC[C@@H]6c6ccccc6)cc5)CC3)C2)C4)C(=O)N1` (stereo partly drawn) [Compound B352, 3-(6-((8-(4-((1R,2S)-6-hydroxy-2-phenyl-1,2,3,4-tetrahydronaphthalcn-1-yl)phcnyl)-1-oxa-8-azaspiro[4.5]decan-3-yl)methyl)-1-oxo-3,5,6,7-tetrahydropyrrolo[3,4-f]isoindol-2(1H)-yl)piperidine-2,6-dione], the DC50 at ER was 10 to 100 nM. Besides, the negative-log IC50 (pIC50) in assay [1] (T47D cell line) is 8.00 to 9.00.

As for `O=C1CCC(N2Cc3c(ccc4c3OCC43CCN(CC4COC5(CCN(c6ccc([C@@H]7c8ccc(O)cc8CC[C@@H]7c7ccccc7)cc6)CC5)C4)CC3)C2=O)C(=O)N1` (stereo partly drawn) [Compound B229, 3-(1′-((8-(4-((1R,2S)-6-hydroxy-2-phenyl-1,2,3,4-tetrahydronaphthalen-1-yl)phenyl)-1-oxa-8-azaspiro[4.5]decan-3-yl)methyl)-6-oxo-6,8-dihydro-2H,7H-spiro[furo[2,3-e]isoindole-3,4′-piperidin]-7-yl)piperidine-2,6-dione], the DC50 at ER was in the range of 10 to 100 nM. In assay [1] (T47D), the negative-log IC50 (pIC50) was 8.00 to 9.00.
